Experimental data: patent US5817651A, “3-arylcarbonyl-1-(C-attached-N-heteryl)-1H-indoles” (Sanofi, priority 1997, dated 1998)
Read-outs that look alike come from different tables or passages of the source.

How the values were obtained:
[1] = tested on: acetic acid-induced writhing; assay: acetic acid-induced writhing assay in the rat (RW); type: in vivo; details: for RW percent inhibition at dose 30: dose level 30; for ED50: Rattus norvegicus, po, oral administration
Method in brief: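 Rats received the test compounds by the oral route. The read-out was abdominal writhing.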

[2] = tested on: acetylcholine-induced abdominal constriction; assay: acetylcholine-induced abdominal constriction test (ACH); type: in vivo; set-up: key to ACH remark (Depr. = depressant): The abbreviations IA and Depr. represent, respectively, inactive and depressant; The abbreviations IA and Depr. represent, respectively, inactive and depressant; details: mice
Method in brief: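 Compounds were given as gum tragacanth suspensions or as aqueous solutions dissolved with dilute methanesulfonic or lactic acid.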

bradykinin = assay: anti-bradykinin test (BDK); type: in vivo; set-up: key to BDK result (po): The abbreviations IA and Depr. represent, respectively, inactive and depressant; The abbreviations IA and Depr. represent, respectively, inactive and depressant
Description: (§1) The test procedures used to determine the analgesic activities of the compounds have been described in detail in the prior art and are as follows: The acetylcholine-induced abdominal constriction test, which is a primary analgesic screening test designed to measure the ability of a test agent to suppress acetylcholine-induced abdominal constriction in mice, described by Collier et al., Brit. J. Pharmacol. Chemotherap. 32, 295 (1968); a modification of the anti-bradykinin test, which is also a primary analgesic screening procedure, described by Berkowitz et al., J. Pharmacol. Exptl. Therap. 177, 500-508 (1971), Blane et al., J. Pharm. Pharmacol. 19, 367-373 (1967), Botha et al., Eur. J. Pharmacol. 6, 312-321 (1969) and Deffenu et al., J. Pharm. Pharmacol. 18, 135 (1966); and the Randall-Selitto analgesic test described by Randall and Selitto, Arch. Int. Pharmacodyn., 111, 409-419 (1957).
(§2) Data in the developing adjuvant arthritis (AA) and plasma fibronectin (FN) assays are expressed as percent inhibition, i.e. inhibition of non-injected paw inflammation (NIP) and injected paw (RPV) and lowering of plasma fibronectin, the asterisks * and ** indicating statistical significance at the p<0.01 and p<0.05 levels, respectively. Compounds are considered active at p<0.05 level. Non-statistically significant results are recorded as "------ ". In the acetylcholine-induced abdominal constriction test, the test compounds were administered either as suspensions in gum tragacanth (GT) or as aqueous solutions prepared by addition of just sufficient dilute aqueous methanesulfonic acid (MS) or dilute aqueous lactic acid (LA) to dissolve the compound. The compounds are identified by the example number above where their preparations are described. All data in the anti-bradykinin, rat writhing and Randall-Selitto tests were obtained on oral administration.

paw pressure = assay: Randall-Selitto (RS) paw pressure test; type: in vivo; details: oral administration; read-out: RS minimum effective dose, MED
Description: as §1, §2

[3] = tested on: mouse vasa deferentia preparation; assay: mouse vas deferens test (MVD); type: cell-based; details: Mus musculus, inhibition of contractions, in vitro; active at 5.0 μM or less
Description: It has been shown previously that smoking marijuana reduces intraocular pressure in man [Helper and Frank, Marijuana Smoking and Intraocular Pressure., J. Am. Med. Assoc. 217, 1392 (1971)]. Topical application or systemic injection of delta-9 tetrahydrocannabinol, a principal active ingredient in marijuana, also reduces intraocular pressure [Purnell and Gregg, delta-9 Tetrahydrocannabinol, Euphoria and Intraocular Pressure in Man., Ann. Opth. 7, 921-923 (1975); Green and Pederson, Effect of delta-9 Tetrahydrocannabinol on Aqueous Dynamics and Ciliary Body Permeability in the Rabbit Eye., Exptl. Eye Research 15, 499-507 (1973); Colasanti, Craig and Allara, Intraocular Pressure, Ocular Toxicity and Neurotoxicity after Administration of Cannabinol or Cannibigerol, Exptl. Eye Research 39, 252-259 (1984)]. Similarly, synthetic cannabinoids also reduce intraocular pressure [Green, Symunds, Oliver and Elijah, Intraocular Pressure Following Systemic Administration of Cannabinoids., Curr. Eye Research 2, 247-253 (1982); Tiedeman, Shields, Weber, Crow, Coccetto, Harris and Howes, Opthalmology, 88, 270-277 (1981); Colasanti et al., supra]. Cannabinoid receptor binding sites can be defined as those to which radio-labelled 4-(1,1-dimethylheptyl)-2,3'-dihydroxy-6'alpha-(3-hydroxypropyl)-1', 2', 3', 4', 5', 6'-hexahydrobiphenyl (CP 55940) binds in a specific and saturable manner and the binding sites are heterogeneously distributed in the brain [Devane, Dysarz, Johnson, Melvin and Howlett, Determination and Characterization of a Cannabinoid Receptor in Rat Brain, Molecular Pharm. 34, 605-613 (1988)]. Natural and synthetic cannabinoids and certain of the compounds of the present invention, as more particularly described above, bind to CP 55940 binding sites. […] It is believed that agonist activity at the cannabinoid receptor mediates the anti-glaucoma actions of cannabinoids, and that agonist activity at this receptor correlates with ocular pressure lowering actions in man. Accordingly the cannabinoid receptor agonist activity of the compounds of the present invention indicate their usefulness in reducing ocular pressure.

[4] = tested on: adjuvant induced arthritis; assay: developing adjuvant arthritis (AA) assay; type: in vivo; set-up: key: Non-statistically significant results are recorded as "------ "; details: arthritic rats; printed * = p<0.01, ** = p<0.05
Method in brief: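 Rats given complete Freund's adjuvant into the right hindpaw on day 1. Drug treatment begins while disease is developing but not yet irreversible. Swelling of non-injected (NIP) and injected (RPV) paws read 15–20 days later, expressed as percent inhibition; active at p<0.05.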

[5] = molecular target: T1, Cannabinoid receptor (CP 55940 binding sites) (Rattus norvegicus, UniProt P20272); assay: CP 55940 binding assay
T1 construct: from tissue

[6] = Mus musculus, Table 9, Examples, no route marked in the cell, read-out: ACH ED50
[7] = Mus musculus, iv, Table 9, iv, read-out: ACH ED50 (iv)

T1 sequence (P20272 whole entry): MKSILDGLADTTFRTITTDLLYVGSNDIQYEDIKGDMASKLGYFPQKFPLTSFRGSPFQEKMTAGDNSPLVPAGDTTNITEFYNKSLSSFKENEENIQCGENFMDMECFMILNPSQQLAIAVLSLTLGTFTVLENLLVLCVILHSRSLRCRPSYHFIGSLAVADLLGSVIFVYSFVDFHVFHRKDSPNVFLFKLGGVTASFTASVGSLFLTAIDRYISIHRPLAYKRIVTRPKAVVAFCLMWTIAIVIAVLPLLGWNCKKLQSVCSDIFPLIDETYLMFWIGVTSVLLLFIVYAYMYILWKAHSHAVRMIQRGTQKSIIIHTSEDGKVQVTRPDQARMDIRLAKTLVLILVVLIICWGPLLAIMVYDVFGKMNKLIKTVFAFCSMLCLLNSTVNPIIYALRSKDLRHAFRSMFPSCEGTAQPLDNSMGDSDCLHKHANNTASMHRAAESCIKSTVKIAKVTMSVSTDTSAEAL

Row | SMILES | ED50 [2, 6] [mg/kg] | minimal effective dose (paw pressure) [mg/kg] | ED50 [2, 7] [mg/kg] | IC50 [3] [nM] | ED50 [1] [mg/kg] | NIP: percent inhibition of non-injected paw inflammation [4] | RPV: percent inhibition of injected paw [4] [%] | also measured
1 | COc1ccc(C(=O)c2c(C)n(CC3CCN(C)CC3)c3ccccc23)cc1 [Example 2AH] | 4 |  |  |  |  |  |  | RW percent inhibition at dose 30 ([1]; oral): 74%; ACH ED50 ([2]; Table 9, Examples, no route marked in the cell): 5 mg/kg; BDK percent inhibition at dose 3 (bradykinin; oral, dose level 3): 30%
2 | Cc1c(C(=O)c2cccc3ccccc23)c2ccccc2n1CC1CCCN(C)C1 (stereo not drawn) [Example 1M] |  | 0.1 | 7 | 91 |  |  |  | inhibition in vivo at 100 mg/kg ([2]; Mus musculus, Table 9, dose level 100, read-out: ACH percent inhibition at dose 100): 25%
3 | COc1ccc(C(=O)c2c(C)n(CC3CCCN3C)c3ccccc23)cc1 (racemic) [Example 2E] | 27 | 0.03 | 6 | 63 | 6 | -- | 24 | BDK result (po) (bradykinin; po): IA
4 | COc1ccc(C(=O)c2c(C)n(C3CCN(C)C3)c3ccccc23)cc1 (stereo not drawn) [Example 1X] | 20 |  |  | 150 | 12 | -- | 23 | 
5 | COc1ccc(C(=O)c2c(C)n(C[C@@H]3CC[C@@H](C)N3C)c3ccccc23)cc1 (relative stereo) [Example 1Y] | 21 |  | 2 | 52 | 3 | 67% | 48 | ED50 ([2]; Mus musculus, sc, Table 9, sc, read-out: ACH ED50 (sc)): 10 mg/kg
6 | COc1ccc(C(=O)c2cn(CCC3CCCCN3C)c3ccccc23)cc1 (stereo not drawn) [Example 2F] | 45 | 3 | 4 |  |  |  |  | 
7 | CN1CCCCC1Cn1cc(C(=O)c2cccc3ccccc23)c2ccccc21 (stereo not drawn) [Example 2P] | 9 |  | 0.03 | 0.22 |  |  |  | RW percent inhibition at dose 30 ([1]; oral): 98%; IC50 [5]: 1.4 nM; ACH ED50 (iv) ([2]; Table 9, iv): 0.05 mg/kg; ACH remark (Depr. = depressant) ([2]; Table 9, remark beside the ED50): Depr.
8 | COc1ccc(C(=O)c2c(C)n(CC3CCCCN3C)c3ccccc23)cc1 (stereo not drawn) [Example 2H] | 33 |  |  | 134 | 22 | 69% | 51 | 
9 | COc1ccc(C(=O)c2c(C)n(C3CCCN(C)C3)c3ccccc23)cc1.Cl (racemic) [Example 4A, 1-(1-methyl-3-piperidinyl)-2-methyl-3-(4-methoxybenzoyl)-1H-indole hydrochloride] | 33 |  |  | 650 |  | 50% | 26 | RW percent inhibition at dose 17 ([1]; oral, dose level 17): 57%
10 | COc1ccc(C(=O)c2c(C)n(CC3CCCN(C)C3)c3ccccc23)cc1 (stereo not drawn) [Example 2D] | 8 |  |  |  | 2 | 99% | 78 | ED50 (bradykinin; oral administration): 2.4 mg/kg
11 | Cc1c(C(=O)c2cccc3ccccc23)c2ccccc2n1CC1CCCCN1C (stereo not drawn) [Example 2R] | 22 |  |  | 1 |  | 57% | 29 | RW percent inhibition at dose 30 ([1]; oral): 100%
12 | COc1ccc(C(=O)c2c(C)n(CCC3CCCN3C)c3ccccc23)cc1 (stereo not drawn) [Example 2B] | 32 | 10 | 8 |  | 25 |  |  | ACH ED50 ([2]; Table 9, Examples, no route marked in the cell, listed as 2B(HCl)): 23 mg/kg
